Results reported in US4551538A, “Phenylpyrazolidine acetic acid derivatives” (American Home Products Corporation, priority 1984, dated 1985).
Values joined by “and” are separate entries in the source; they are usually repeats but may differ in a detail not shown here. Equal entries are not always repeated. Where two headings read alike, the source gives them in different places.

Experiments:
[1] = system: urate-induced canine synovitis; test: urate-induced canine synovitis test; assay type: in vivo, dog (mongrel); conditions: Canis lupus familiaris, read-out: Oral ED50
Protocol: In this procedure, healthy mongrel dog of either sex weighing between 14-20 kg are adapted to a measuring platform. […] A Hewlett Packard 75C computer then converts voltage into kilogram units (mean pressure reading for 1 minute). This control pressure represents the 100% value in this procedure. Synovitis is induced by injecting 5 mg of sodium urate crystals (5-15μ in length) in 1 ml of 0.9% saline solution into the synovial space of the right or left knee. Readings are taken at 1, 2, 2.5, 3, 3.5, 4, 4.5 and 5 hours after urate administration and calculated as a percentage of control hind paw pressure. […] Dogs are used only once in these experiments to prevent tolerance.
Each dog is placed on the pressure measuring apparatus with its left or right hind paw centered above the load cell, and pressure readings are recorded for one minute. Two or three control readings are averaged and represent control paw pressure. Single pressure readings are taken after sodium urate injection.
Drug effects are expressed as a percentage of control paw pressure which is calculated as follows:
Test reading/Control reading×100
Test reading=Pressure measurement after sodium urate injection and drug or no drug (blank capsule).
Control reading=Mean pressure measurement before sodium urate injection.
A one-way analysis of variance with Dunnett's comparisons to control (α=0.05 and 0.01) was used to determine statistical significance.

[2] = system: AA-induced mouse ear edema; test: arachidonic acid (AA)-induced murine ear edema test; assay type: in vivo, mouse (Swiss Webster); conditions: for % Change from Control, AA ear edema: * p ≤ 0.05; for ED50: Mus musculus, 1 h
Description: (§1) The ability of the compounds of the invention to inhibit the lipoxygenase and cyclooxygenase pathways of arachidonic acid is examined in the in vivo arachidonic acid (AA)-/12-O-tetradecanoylphorbol acetate (TPA)-induced murine ear edema test.
(§2) According to this test, Swiss Webster female mice (Buckshire), approximately 8 weeks old, are placed into plastic boxes in groups of six. Eight groups of mice receive AA topically on the right ear, and another 8 groups receive TPA topically on the right ear. AA and TPA are dissolved in acetone at concentrations of 100 mg/ml and 100 μg/ml respectively. The phlogistics are applied to the right ear by the means of an automatic pipet. Volumes of 10 μl are applied to the inner and outer surfaces of the ear. Each mouse receives either 2 mg/ear AA or 4 μg/ear TPA. The left ear (control) receives acetone delivered in the same manner. Oral and topical dosing regimens are as follows: (1) drugs are given 30 minutes prior to AA treatment, and (2) drugs are given 30 minutes after treatment with TPA.
(§3) Measurements are taken with Oditest calipers, 0-10 mm with 0.01 graduations. The right and left ears are measured after 1 hour AA-induced inflammation and 4 hours after TPA-induced inflammation.
(§4) The difference between right and left ear thickness is calculated and the significance is determined by a one way analysis of variance with Dunnett's comparisons to control (P=0.05). Drug effects are expressed as a percent change from control values: [formula]

[3] = system: phenylbenzoquinone-induced writhing; test: phenylbenzoquinone-induced writhing test; assay type: in vivo, mouse (CF-1)
Protocol: In this procedure, test compound or vehicle is administered at various doses to ten male CF-1 mice, weighing 20-25 g, per dose level. The animals then receive intraperitoneal injection with 0.25 ml of the writhing agonist (a 0.02% solution of benzoquinone) 5 minutes before the beginning of a pre-selected, 10-minute observation period. Typical observation periods include 10 to 20, 25 to 35, 40 to 50 and 55 to 65 minutes following administration of the test compound. The mice are observed during the observation period and the total numbers of writhes are determined for each mouse.

[4] = system: TPA-induced mouse ear edema; test: 12-O-tetradecanoylphorbol acetate (TPA)-induced murine ear edema test; assay type: in vivo, mouse (Swiss Webster); conditions: for % Change from Control, TPA ear edema: * p ≤ 0.05; for ED50: Mus musculus, 4 h
Description: as §1, §2, §3, §4

[5] = system: arachidonic acid lipoxygenase oxidation product 5-HETE; test: inhibition of 5-HETE synthesis by rat glycogen-elicited polymorphonuclear leukocytes; assay type: cell-based, rat (Wistar); conditions: Leukocyte, read-out: 50% Inhibitory Concentration of (IC50) 5-HETE
Protocol: The assay of this Example measures the ability of the compounds of the invention to inhibit the synthesis of 5-HETE by rat glycogen-elicited polymorphonuclear leukocytes.
The assay is carried out as follows:
(§5) Peritoneal PMN are obtained from female Wistar rats (150-250 g) that received an i.p. injection of 6% glycogen (10 ml). After 24 hours, rats are killed by CO2 asphyxiation and peritoneal cells are harvested by peritoneal lavage using Ca^++ and Mg^++ free Hanks' balanced salt solution (HBSS). The peritoneal exudate is centrifuged at 400 g for 10 minutes. After centrifugation, the lavaged fluid is removed and the cell pellet is resuspended in HBSS containing Ca^++ and Mg^++ and 10 mM L-cysteine at a concentration of 2×10^7 cells/ml. To 1 ml portions of cell suspension, test drugs or vehicle are added and incubated at 37° C. for 10 minutes. Following this preincubation, the calcium ionophore (10 μM), A23187, is added together with 0.5 μCi [^14 C] arachidonic acid and further incubated for 10 minutes. The reaction is stopped by the addition of ice cold water (3 ml) and acidifying to pH 3.5. Lipoxygenase products are then extracted twice into diethyl ether. The pooled ether extracts are evaporated to dryness under nitrogen and the residue is redissolved in a small volume of methanol and spotted on aluminum backed pre-coated thin layer chromatographic plates. The samples are then co-chromatographed with authentic reference 5-HETE, in the solvent system--hexane:ether:acetic acid (50:50:3). After chromatography, the areas associated with 5-HETE standard are identified by autoradiography, cut out and quantitated by liquid scintillation.
(§6) Results are expressed as % inhibition of [^14 C]5-HETE synthesis. [formula]

[6] = system: acute inflammatory response (carrageenan rat paw edema); test: carrageenan rat paw edema test; assay type: in vivo, rat (Sprague-Dawley); conditions: for % Inhibition of paw edema: 200 mg/kg perorally, 3 h reading; for profile of activity in carrageenan rat paw edema test: in vivo; for ED50: Rattus norvegicus, po, 3 h, read-out: ED50, paw edema
Protocol: In this test, male Sprague-Dawley (Charles River) rats weighing 140-180 gm, in groups of 6 animals, are injected subcutaneously in the right paw with 0.1 ml of 1% carrageenan at zero time. Mercury plethysmographic readings (ml) of the paw are made at zero time and 3 hours later. Drugs are suspended or dissolved in 0.5% methylcellulose and given perorally one hour prior to carrageenan. The increase in paw volume (edema in ml) produced by the inflammatory agent, carrageenan, is measured.
Unpaired Student's t-test is used to determine statistical significance.

[7] = system: arachidonic acid cyclooxygenase oxidation product PGE2; test: inhibition of PGE2 synthesis by rat polymorphonuclear leukocytes; assay type: cell-based, rat (Wistar); conditions: read-out: 50% Inhibitory Concentration (IC50), PGE2
Protocol: as §5, §6
However, in order to determine cyclooxygenase activity, the samples are cochromatographed with authentic reference PGE2 in the solvent system ethyl acetate:formic acid (80:1) and the upper phase of ethyl acetate:isoctane:acetic acid:water (110:50:20:100). After chromatography, the areas associated with PGE2 standard are identified by autoradiography, cut out and quantitated by liquid scintillation techniques.

[8] = system: cyclooxygenase; conditions: background statement; cited from earlier work
[9] = system: lipoxygenase; conditions: background statement; cited from earlier work
[10] = rat PMN, A23187 10 μM, [14C] arachidonic acid
[11] = Leukocyte, rat PMN, A23187 10 μM, [14C] arachidonic acid
[12] = 200 mg/kg; Control = 15.5; * p ≤ 0.05
[13] = perorally, 1 h prior to carrageenan

O=C(O)C(O)N1C(=O)CCN1c1ccccc1 (stereo not drawn) [Example 2, α-Hydroxy-5-oxo-2-phenyl-1-pyrazolidine acetic acid]
ED50 ([1]; oral, 2 h after urate): 5 mg/kg | % Change from Control, AA ear edema ([2]; oral, 100 mg/kg, 1 h after AA): -30% | % Change from Control, AA ear edema ([2]; topical, 0.1 mg/ear): -21% | % Change from Control, AA ear edema ([2]; topical, 0.33 mg/ear): -26% | % Change from Control, AA ear edema ([2]; topical, 1.0 mg/ear): -54% | Mean No. of Writhes ([3]; 100 mg/kg; Control = 5.1): 3.5 | Mean No. of Writhes ([3]; 133 mg/kg; Control = 15.5; * p ≤ 0.05): 3.2 | % Change from Control, TPA ear edema ([4]; oral, 100 mg/kg, 4 h after TPA): -8% | % Change from Control, TPA ear edema ([4]; topical, 0.1 mg/ear): -12% | % Change from Control, TPA ear edema ([4]; topical, 0.33 mg/ear): -31% | % Change from Control, TPA ear edema ([4]; topical, 1.0 mg/ear): -23% | IC50 [5, 10]: 3 to 5 µM | % Inhibition of paw edema ([6]; 1 h prior to carrageenan): 46% | profile of activity in carrageenan rat paw edema test [6]: a profile of activity similar to that of phenidone

O=C(O)C(O)N1C(=O)CCN1c1cccc(Cl)c1 (stereo not drawn) [Example 3, 2-(m-Chlorophenyl)-α-hydroxy-5-oxo-1-pyrazolidine acetic acid]
% Change from Control, AA ear edema ([2]; oral, 50 mg/kg, 1 h after AA): -5% | % Change from Control, TPA ear edema ([4]; oral, 50 mg/kg, 4 h after TPA): -8% | IC50 [7, 11]: 110 µM | IC50 [5, 10]: 2 to 5 µM | % Inhibition of paw edema ([6]; 1 h prior to carrageenan): 29%

O=C(O)C(O)N1C(=O)CCN1c1cccc([N+](=O)[O-])c1 (stereo not drawn) [Example 6, α-Hydroxy-5-oxo-2-(3-nitrophenyl)-1-pyrazolidine acetic acid]
% Change from Control, AA ear edema ([2]; oral, 100 mg/kg, 1 h after AA): +4% | % Change from Control, TPA ear edema ([4]; oral, 100 mg/kg, 4 h after TPA): -23% | IC50 [5, 10]: < 50 µM

O=C(O)C(O)N1C(=O)CCN1c1cccc(F)c1 (stereo not drawn) [Example 4, 2-(3-Fluorophenyl)-α-hydroxy-5-oxo-1-pyrazolidine acetic acid]
% Change from Control, AA ear edema ([2]; oral, 100 mg/kg, 1 h after AA): -11% | % Change from Control, AA ear edema ([2]; topical, 0.1 mg/ear): -27% | % Change from Control, AA ear edema ([2]; topical, 0.33 mg/ear): -38% | % Change from Control, AA ear edema ([2]; topical, 1.0 mg/ear): -63% | Mean No. of Writhes ([3]; 100 mg/kg; Control = 4.5): 3.8 | Mean No. of Writhes [3, 12]: 1.7 | % Change from Control, TPA ear edema ([4]; oral, 50 mg/kg, 4 h after TPA): 0% | % Change from Control, TPA ear edema ([4]; oral, 100 mg/kg, 4 h after TPA): -27% | % Change from Control, TPA ear edema ([4]; topical, 0.1 mg/ear): -10% | % Change from Control, TPA ear edema ([4]; topical, 0.33 mg/ear): -23% | % Change from Control, TPA ear edema ([4]; topical, 1.0 mg/ear): -45% | IC50 [5, 10]: 5 to 13 µM | % Inhibition of paw edema ([6]; 1 h prior to carrageenan): 44% | profile of activity in carrageenan rat paw edema test [6]: a profile of activity similar to that of phenidone

NC1=NN(c2cccc(C(F)(F)F)c2)CC1 [BW755C, 3-amino-1-[m-(trifluoromethyl)phenyl]-2-pyrazoline, reference compound]
ED50 ([1]; oral, 2 h after urate): 1.5 mg/kg | ED50 ([2]; oral): 65 mg/kg | ED50 ([3]; Mus musculus; read-out: ED50, writhing): 100 mg/kg | ED50 ([4]; oral): 88 mg/kg | IC50 ([7]; Rattus norvegicus, Leukocyte): 25 µM | IC50 ([5]; Rattus norvegicus): 43 µM | inhibition of cyclooxygenase activity [8]: inhibitors of both cyclooxygenase and lipoxygenase activity | ED50 [6, 13]: 72 mg/kg | inhibition of lipoxygenase activity [9]: inhibitors of both cyclooxygenase and lipoxygenase activity

CC(=O)Oc1ccccc1C(=O)O [aspirin, reference compound]
Mean No. of Writhes [3, 12]: 6.6

O=C(O)C(O)N1C(=O)CCN1c1ccc(Cl)cc1 (stereo not drawn) [Example 5, 2-(4-Chlorophenyl)-α-hydroxy-5-oxo-1-pyrazolidine acetic acid]
% Change from Control, AA ear edema ([2]; oral, 50 mg/kg, 1 h after AA): -22% | % Change from Control, TPA ear edema ([4]; oral, 50 mg/kg, 4 h after TPA): -8% | IC50 [7, 11]: 140 µM | IC50 [5, 10]: 2 to 3 µM | % Inhibition of paw edema ([6]; 1 h prior to carrageenan): 30%

O=C(O)C(O)N1C(=O)CCN1c1cccc(C(F)(F)F)c1 (stereo not drawn) [Example 1, α-Hydroxy-5-oxo-2-[3-(trifluoromethyl)phenyl]-1-pyrazolidine acetic acid]
% Change from Control, AA ear edema ([2]; topical, 1.0 mg/ear): -83% and -74% | IC50 [7, 10]: < 50 µM

COc1ccc2c(c1)c(CC(=O)O)c(C)n2C(=O)c1ccc(Cl)cc1 [indomethacin, reference compound]
ED50 ([1]; po, 2 h): 0.3 mg/kg | activity in AA ear edema ([2]; oral, 10 mg/kg): NA(10) | ED50, AA ear edema ([2]; topical): 0.1 mg/ear | ED50 ([3]; Mus musculus, read-out: ED50, writhing): 10 mg/kg | activity in TPA ear edema ([4]; oral, 10 mg/kg): NA(10) | ED50, TPA ear edema ([4]; topical): 0.08 mg/ear | ED50 [6]: 5.6 mg/kg

O=C1CCN(c2ccccc2)N1 [phenidone, 1-phenyl-3-pyrazolidone, reference compound]
ED50 ([1]; oral, 2 h after urate): 4.3 mg/kg | ED50 ([2]; oral): 84 mg/kg | ED50, AA ear edema ([2]; topical): 0.1 mg/ear | Mean No. of Writhes ([3]; 200 mg/kg; Control = 4.0): 2.2 | ED50 ([4]; oral): 235 mg/kg | ED50, TPA ear edema ([4]; topical): 0.6 mg/ear | IC50 [7, 11]: > 100 µM | IC50 [5, 10]: 12 µM | inhibition of cyclooxygenase activity [8]: inhibitors of both cyclooxygenase and lipoxygenase activity | ED50 [6, 13]: 196 mg/kg | inhibition of lipoxygenase activity [9]: inhibitors of both cyclooxygenase and lipoxygenase activity
